Measurements reported in patent US20150299277A1, “AGENT FOR TREATING OR PREVENTING SYSTEMIC INFLAMMATORY RESPONSE SYNDROME” (THE UNIVERSITY OF TOKYO, priority 2012, published 2015).

Experiments:
histone H4 [1] = biological target: T1, histone H4 (Homo sapiens, UniProt P62805); assay: CD spectrum of histone H4-PTX3 complex
Description: The CD spectrum of the histone H4-PTX3 complex was measured. The N-terminal domain of PTX3 (25 μg/mL) and histone H4 (5 μg/mL) were each independently measured, and further, the histone H4-PTX3 mixture was measured (FIG. 6D).

[2] = test system: mouse subjected to cecal ligation and puncture (CLP); assay: Cecal ligation and puncture (CLP) mouse; type: in vivo; settings: 5 mg/kg with gentamicin 5 mg/kg, 4 hr after CLP, versus gentamicin alone
Description: For cecal ligation and puncture (CLP) treatment, male C57BL/6 mouse was anesthetized, laparotomy was performed, and cecum was exposed and ligated. A hole is made with an injection needle at the middle between the ligated site and cecum peripheral site, and the abdomen is closed. Four hours from the CLP treatment, the N-terminal domain of PTX3 (5 mg/kg) and gentamicin (5 mg/kg), or gentamicin (5 mg/kg) alone were(was) administered to the mouse.
Mouse was subjected to cecal ligation and puncture (CLP) treatment and, 4 hr later from the treatment, the N-terminal domain of PTX3 (5 mg/kg) and gentamicin (5 mg/kg), or gentamicin (5 mg/kg) alone were(was) administered to the mouse.

histone H2A = biological target: T2, histone H2A (Homo sapiens, UniProt Q7L7L0); assay: ELISA binding assay; settings: immobilized recombinant histone
T2 construct: purchased NEB
Description: (§1) Recombinant human histone (NEB) was adjusted to a concentration of 1 μg/mL in TBS, added to a 96 well ELISA plate, and immobilized at 4° C. overnight. The solution was discarded, a blocking buffer (TBS, 0.1% Triton-X100, 1% BSA) was added, and the plate was incubated at room temperature for 2 hr. The plate was washed four times with a wash buffer (TBS, 0.1% Triton-X100), recombinant PTX3 diluted to various concentrations with the blocking buffer was added to each well, and reacted at room temperature for 1 hr. After washing four times with the wash buffer, HRP-labeled antibody diluted with the blocking buffer was added, and reacted at room temperature for 1 hr. After washing four times with the wash buffer, TMB solution was added to carry out a color development reaction for 30 min, and the absorbance at 450 nm was measured. Assay was performed using all the buffers containing 4 mM CaCl2 or 4 mM EDTA.
(§2) The binding level between immobilized each recombinant histone and a tagged human PTX3 fragment was measured by binding assay (ELISA). For detection, HRP-labeled anti-His (6×His) antibody was used. ELISA was performed with duplicate wells for each point, and means and standard deviations were calculated from three independent experiments.

histone H2B = biological target: T3, histone H2B (Homo sapiens, UniProt Q16778); assay: ELISA binding assay; settings: immobilized recombinant histone
T3 construct: purchased NEB
Description: as §1, §2

[3] = test system: mice intraperitoneally administered with LPS; assay: LPS-administered mouse; type: in vivo
Description: At 0, 6 and 24 hr from the LPS administration, heparin plasma was collected, and the concentrations of mouse IL-6 and mouse VEGF were measured using ELISA kit (R&D).
The survival rate of the mice intraperitoneally administered with LPS at a concentration of 16 mg/kg is shown. The N-terminal domain of PTX3 (5 mg/kg) or control buffer was intraperitoneally administered 2 hr prior to LPS administration. In addition, the time-course changes in the plasma IL-6 and VEGF levels of the LPS-administrated mice treated with the N-terminal domain of PTX3 were measured by ELISA.

each histone = assay: BIAcore / surface plasmon resonance (SPR) measurement; type: binding, human; settings: immobilized recombinant histone
Description: For the measurement, BIAcore 3000 or T200 (GE Healthcare) was used. Recombinant human histone was immobilized on CM5 sensor chip by an amine coupling kit (GE Healthcare). The reaction with recombinant PTX3 was performed using a buffer (150 mM NaCl, 20 mM HEPES, 0.005% surfactant P20 (pH 7.4)) at a flow rate of 20 μl/min. Measurement was performed using the buffer containing […]. The sensor chip was regenerated in IM sodium acetate (10 μL, pH 7.2) and 10 mM NaOH (10 μL).
The binding of immobilized each recombinant histone, and Myc- and His-tagged human PTX3 fragment was measured by surface plasmon resonance (SPR). The highest concentration of each PTX3 was as follows. full-length PTX3: 1 nM, N-terminal domain of PTX3: 5 nM, C-terminal domain of PTX3: 50 nM. The assay buffer contained 4 mM CaCl2 (Ca^2+) or 4 mM EDTA/EGTA. The affinity measured by SPR was calculated from three experiments.

histone H4 [4] = biological target: T1, histone H4; assay: Dose-dependent precipitate formation (supernatant after centrifugation); type: binding; settings: PTX3 0, 12.5, 25, 50 μg/mL; histone H4 50 μg/mL
Description: (§3) Full-length PTX3 at each concentration (0, 12.5, 25, 50 μg/mL) was mixed with Calf Thymus Histones (50 μg/mL) or histone H4 (50 μg/mL), and the mixture was centrifuged. The obtained supernatant was subjected to immunoblotting using PPZ-1228 or SYPRO Ruby staining.

Calf Thymus Histones = assay: as above; type: binding; settings: PTX3 0, 12.5, 25, 50 μg/mL; histones 50 μg/mL
Description: as §3

histone H4 [5] = biological target: T1, histone H4; assay: PTX3-histone aggregation, UV-visible absorption spectrum (310 nm); type: binding; set-up: purchased NEB; settings: PTX3 at various concentrations mixed with histone H4
Description: 0.1 mg/mL human histone H4 was mixed with equal volume of various concentrations of Myc-tagged full-length PTX3, and UV-visible absorption spectrum was measured. A graph of absorbance at 310 nm is shown at the top.
Full-length PTX3 at each concentration was mixed with 50 μg/mL histone H4, and UV-visible absorption spectrum (wavelength 310 nm) was measured.

[6] = LPS-administrated mice, 5 mg/kg, ELISA

Substance	CD spectrum, mixed with histone H4 (histone H4 [1]; 25 μg/mL with histone H4 5 μg/mL)	CD spectrum, alone (histone H4 [1]; 25 μg/mL, measured independently)	mortality due to the CLP treatment [2]	bindability to histone H2A (binding assay) (histone H2A)	bindability to histone H2B (binding assay) (histone H2B)	inflammatory reaction caused by LPS administration (biochemical study of blood) ([3]; 5 mg/kg intraperitoneally 2 hr prior to LPS 16 mg/kg)	mortality due to LPS administration ([3]; 5 mg/kg intraperitoneally 2 hr prior to LPS 16 mg/kg, C57BL/6 mice)	plasma IL-6 level [3, 6]	plasma VEGF level [3, 6]	affinity for each histone by SPR (each histone)	precipitate formation with histone H4 (histone H4 [4])	precipitate formation with Calf Thymus Histones (Calf Thymus Histones)	aggregation with histone H4, UV-visible absorption spectrum (histone H4 [5])	affinity for each histone by SPR (each histone; listed as PTX3)
N-terminal domain of PTX3: N-terminal domain human PTX3 (18-178 amino acids, SEQ ID NO: 3), tagged, expressed in CHO cells or Escherichia coli	did not afford a spectrum pattern showing a general secondary structure	a spectrum pattern having α-helix in the secondary structure	significantly improved	lower than that of the full-length PTX3	lower than that of the full-length PTX3	suppressed	significantly improved mortality	suppressed	suppressed	full-length PTX3>N-terminal domain>C-terminal domain	–	–	–	–
full-length PTX3: full-length human pentraxin 3 (1-381 amino acids, SEQ ID NO: 2), used tag-free or Myc- and His-tagged	–	–	–	–	–	–	–	–	–	full-length PTX3>N-terminal domain>C-terminal domain	precipitated as an insoluble product	precipitated as an insoluble product	dose-dependent spectrum	extremely high
